System: Atoh1
Assay: Atoh1 induction assay in mouse cerebellar neural precursor cells (Atoh1-GFP reporter assay)
Type: cell-based
Conditions: maximum fold difference over DMSO control (=1), cerebellar NPCs from Atoh1-GFP mice, 10 doses 50 μM to 200 nM, 72 hours treatment, read-out: Fold Difference (ratio of Atoh1-GFP average intensity_FC to DMSO_Max)
Description: Atoh1 induction assay was conducted with in vitro cultured cerebellar neural precursor cells isolated from neonatal transgenic Atoh1-GFP mice. Atoh1 expression is mainly regulated by the enhancer, and the nuclear GFP was driven by the cloned enhancer sequence at 3′ of Atoh1 which had high conservation among mammalians So Atoh1 induction could be reflected by GFP activation in cerebellar neural precursor cells (Helms et al., Development 2000; 127: 1185-1196; Lumpkin et al., Gene Expression Patterns 2003; 3: 389-395). Postnatal 3 days pups were dissected for cerebellum tissue isolation. The cerebellum tissue was cut into small pieces, and dissociated with 0.05% Trypsin for about 10 minutes at 37° C., and then filtered with a 70 uM cell strainer. The cells were cultured as neuropsheres for the first 2 days in ultra-low attachment dish/well-plate with DMEM/F12+1% N2 &2% B27 with 1% P/S, 20 ng/ml rhFGF2 and 20 ng/ml rhEGF (R&D Systems). Then the spheres were plated to the matrigel (1:30 diluted in DMEM/F12)-coated tissue culture dish for monolayer culture. After 4.5-5.5 days culture in vitro (DIV), cells were dissociated with 0.05% trypsin into single cells, and frozen after cell number calculation.
The cerebellar neural precursor cells (NPCs) were re-thawed from stock and cultured for another 2 days before used for Atoh1 induction assay. On the first day of assay, NPCs were seeded into matrigel-coated 384 well plates (Black view-plate, PE) at 2500 cells/well. After over-night culture, the NPCs were treated with representative compounds of the present disclosure with 1:2 serial dilutions for 10 doses, from 50 μM to 200 nM, with DMSO as negative control. After 72 hours treatment without medium change, the cells were fixed with 4% formalin for staining Assay plates were stained with GFP antibody (Abcam, #13970, 1:1000) to amplify endogenous GFP signal and then read by Cellomics. […] Table 1 Atoh1 activation by treatment of Compounds of the present disclosure (Atoh1-GFP reporter assay in cerebellar NPCs)

Row | Structure (SMILES) | maximal fold induction
1 | N#C[C@H]1CCN(CCCCCNC(=O)c2cc(-c3ccc(F)cc3)on2)C[C@H]1O (single isomer, unassigned) [Example 2] | 11.5
2 | NC(=O)[C@@H]1CCN(CCCCCNC(=O)c2cc(-c3cccs3)on2)C[C@@H]1O (stereo in doubt) [Example 30, N-(5-(4-carbamoyl-3-hydroxypiperidin-1-yl)pentyl)-5-(thiophen-2-yl)isoxazole-3-carboxamide] | 16.1
3 | N#C[C@@H]1CN(CCCCCNC(=O)c2cc(-c3cccs3)on2)C[C@@H]1O [34 cis] | 11.2
4 | NC(=O)[C@H](O)CN1CCN(CCCCCNC(=O)c2cc(-c3cccs3)on2)CC1 [37 R] | 29.2
5 | NC(=O)[C@@H](O)CN1CCN(CCCCCNC(=O)c2cc(-c3cccs3)on2)CC1 [37 S] | 31.5
6 | N#C[C@@H]1CN(CCCCCNC(=O)c2cc(-c3cccs3)on2)CC[C@@H]1C(N)=O [Example 1, N-(5-((3S,4S)-4-carbamoyl-3-cyanopiperidin-1-yl)pentyl)-5-(thiophen-2-yl)isoxazole-3-carboxamide] | 12.7
7 | O=C(NCCCCCN1CC(S(=O)(=O)NC2COC2)C1)c1cc(-c2cccs2)on1 [Example 3, N-(5-(3-(N-(oxetan-3-yl)sulfamoyl)azetidin-1-yl)pentyl)-5-(thiophen-2-yl)isoxazole-3-carboxamide] | 11.2
8 | N#CCCNS(=O)(=O)C1CN(CCCCCNC(=O)c2cc(-c3cccs3)on2)C1 [Example 4, N-(5-(3-(N-(2-cyanoethyl)sulfamoyl)azetidin-1-yl)pentyl)-5-(thiophen-2-yl)isoxazole-3-carboxamide] | 18.3
9 | CNC(=O)COC(=O)NC1CN(CCCCCNC(=O)c2cc(-c3cccs3)on2)C1 [Example 5] | 17.2
10 | NS(=O)(=O)C1CCCN(CCCCCNC(=O)c2cc(-c3cccs3)on2)C1 (centres unmarked) [Example 6, N-(5-(3-sulfamoylpiperidin-1-yl)pentyl)-5-(thiophen-2-yl)isoxazole-3-carboxamide] | 20.1
11 | NS(=O)(=O)C1CCN(CCCCCNC(=O)c2cc(-c3cccs3)on2)C1 (centres unmarked) [Example 7, N-(5-(3-sulfamoylpyrrolidin-1-yl)pentyl)-5-(thiophen-2-yl)isoxazole-3-carboxamide] | 17.2
12 | NC(=O)C1CCN(CCCCCNC(=O)c2cc(-c3ccc(F)cc3)on2)C1 (centres unmarked) [Example 8, N-(5-(3-carbamoylpyrrolidin-1-yl)pentyl)-5-(4-fluorophenyl)isoxazole-3-carboxamide] | 14.6
13 | NC(=O)C1(CO)CN(CCCCCNC(=O)c2cc(-c3cccs3)on2)C1 [Example 9, N-(5-(3-carbamoyl-3-(hydroxymethyl)azetidin-1-yl)pentyl)-5-(thiophen-2-yl)isoxazole-3-carboxamide] | 24.4
14 | NC(=O)C1(CO)CN(CCCCCNC(=O)c2cc(-c3ccc(F)cc3)on2)C1 [Example 10, N-(5-(3-carbamoyl-3-(hydroxymethyl)azetidin-1-yl)pentyl)-5-(4-fluorophenyl)isoxazole-3-carboxamide] | 19.1
15 | CC1(C(N)=O)CN(CCCCCNC(=O)c2cc(-c3cccs3)on2)C1 [Example 11, N-(5-(3-carbamoyl-3-methylazetidin-1-yl)pentyl)-5-(thiophen-2-yl)isoxazole-3-carboxamide] | 33.3
16 | CC1(C(N)=O)CN(CCCCCNC(=O)c2cc(-c3ccc(F)cc3)on2)C1 [Example 12, N-(5-(3-carbamoyl-3-methylazetidin-1-yl)pentyl)-5-(4-fluorophenyl)isoxazole-3-carboxamide] | 22.4
17 | NC(=O)C1CN(CCCCCNC(=O)c2cc(-c3cccs3)on2)CC1O (centres unmarked) [Example 13, N-(5-(3-carbamoyl-4-hydroxypyrrolidin-1-yl)pentyl)-5-(thiophen-2-yl)isoxazole-3-carboxamide] | 32.5
18 | NS(=O)(=O)C1CCN(CCCCCNC(=O)c2cc(-c3cccs3)on2)CC1 [Example 14, N-(5-(4-sulfamoylpiperidin-1-yl)pentyl)-5-(thiophen-2-yl)isoxazole-3-carboxamide] | 23.8

Row | Structure (SMILES) | maximal fold induction
19 | NS(=O)(=O)C1CCN(CCCCCNC(=O)c2cc(-c3ccc(F)cc3)on2)CC1 [Example 15, 5-(4-fluorophenyl)-N-(5-(4-sulfamoylpiperidin-1-yl)pentyl)isoxazole-3-carboxamide] | 18.9
20 | N#C[C@H]1CCN(CCCCCNC(=O)c2cc(-c3cccs3)on2)C[C@@H]1O [Example 16, N-(5-((3R,4R)-4-cyano-3-hydroxypiperidin-1-yl)pentyl)-5-(thiophen-2-yl)isoxazole-3-carboxamide] | 32.3
21 | NC(=O)CCN1CCN(CCCCCNC(=O)c2cc(-c3cccs3)on2)CC1 [Example 17, N-(5-(4-(3-amino-3-oxopropyl)piperazin-1-yl)pentyl)-5-(thiophen-2-yl)isoxazole-3-carboxamide] | 20.4
22 | NS(=O)(=O)CCN1CCN(CCCCCNC(=O)c2cc(-c3cccs3)on2)CC1 [Example 19, N-(5-(4-(2-sulfamoylethyl)piperazin-1-yl)pentyl)-5-(thiophen-2-yl)isoxazole-3-carboxamide] | 16.3
23 | NC(=O)C1CCN(CCCCCNC(=O)c2cc(-c3cccs3)on2)CC1 [Example 20, N-(5-(4-cathamoylpiperidin-1-yl)pentyl)-5-(thiophen-2-yl)isoxazole-3-carboxamide] | 14.7
24 | NC(=O)C1(O)CN(CCCCCNC(=O)c2cc(-c3cccs3)on2)C1 [Example 21, N-(5-(3-carbamoyl-3-hydroxyazetidin-1-yl)pentyl)-5-(thiophen-2-yl)isoxazole-3-carboxamide] | 20.8
25 | CNC(=O)C1CN(CCCCCNC(=O)c2cc(-c3ccc(F)s3)on2)C1 [Example 22, 5-(5-fluorothiophen-2-yl)-N-(5-(3-(methylcarbamoyl)azetidin-1-yl)pentyl)isoxazole-3-carboxamide] | 16.8
26 | NC(=O)C1CN(CCCCCNC(=O)c2cc(-c3ccc(F)s3)on2)C1 [Example 23, N-(5-(3-carbamoylazetidin-1-yl)pentyl)-5-(5-fluorothiophen-2-yl)isoxazole-3-carboxamide] | 24.3
27 | CC(C#N)NC(=O)C1CN(CCCCCNC(=O)c2cc(-c3ccc(F)cc3)on2)C1 (centres unmarked) [Example 24, N-(5-(3-((1-cyanoethyl)carbamoyl)azetidin-1-yl)pentyl)-5-(4-fluorophenyl)isoxazole-3-carboxamide] | 18.3
28 | CN1CCN(CCCCCNC(=O)c2cc(-c3cccs3)on2)CC1C(N)=O (centres unmarked) [Example 25, N-(5-(3-carbamoyl-4-methylpiperazin-1-yl)pentyl)-5-(thiophen-2-yl)isoxazole-3-carboxamide] | 13.1
29 | NC(=O)C1(O)CCN(CCCCCNC(=O)c2cc(-c3cccs3)on2)CC1 [Example 26, N-(5-(4-carbamoyl-4-hydroxypiperidin-1-yl)pentyl)-5-(thiophen-2-yl)isoxazole-3-carboxamide] | 16.3
30 | O=C(NCCCCCN1CC(C(=O)N[C@H]2CCC[C@H]2O)C1)c1cc(-c2ccc(F)cc2)on1 [Example 27, 5-(4-fluorophenyl)-N-(5-(3-(((1S,2R)-2-hydroxycyclopentyl)carbamoyl)azetidin-1-yl)pentyl)isoxazole-3-carboxamide] | 13.5
31 | NC(=O)[C@@H]1CCN(CCCCCNC(=O)c2cc(-c3cccs3)on2)C[C@@H]1F [Example 28-cis, N-(5-((3R,4S)-4-carbamoyl-3-fluoropiperidin-1-yl)pentyl)-5-(thiophen-2-yl)isoxazole-3-carboxamide] | 11.9
32 | NC(=O)[C@@H]1CCN(CCCCCNC(=O)c2cc(-c3cccs3)on2)C[C@H]1F [Example 28-trans, N-(5-((3S,4S)-4-carbamoyl-3-fluoropiperidin-1-yl)pentyl)-5-(thiophen-2-yl)isoxazole-3-carboxamide] | 16.8
33 | N#C[C@H]1CCN(CCCCCNC(=O)c2cc(-c3cccs3)on2)C[C@@H]1C(N)=O [Example 29, N-(5-((3R,4S)-3-carbamoyl-4-cyanopiperidin-1-yl)pentyl)-5-(thiophen-2-yl)isoxazole-3-carboxamide] | 15.4
34 | NC(=O)C1CCN(CCCCCNC(=O)c2cc(-c3ccc(F)cc3)on2)CC1O (centres unmarked) [Example 31, N-(5-(4-carbamoyl-3-hydroxypiperidin-1-yl)pentyl)-5-(4-fluorophenyl)isoxazole-3-carboxamide] | 14.7
35 | O=C(NCCCCCN1CC(C(=O)NC2COCC2O)C1)c1cc(-c2cccs2)on1 (centres unmarked) [Example 36, N-(5-(3-((4-hydroxytetrahydrofuran-3-yl)carbamoyl)azetidin-1-yl)pentyl)-5-(thiophen-2-yl)isoxazole-3-carboxamide] | 13.6
